Results on nine molecules are retold here after patent US10344060B2 (priority 2013, dated 2019).

The IC50 is the concentration at which inhibition is half-maximal.

Common to all, as to assay: cell-based
Holding throughout (type): cell-based

The target of assay [1] is T1, hNav1.4 (Homo sapiens, UniProt P35499). The following applies: ratio of IonWorks Quattro IC50 values; Table 9.
For assay [2], the target named is T1, hNav1.4. The following applies: for IC50: PatchXpress, read-out: PX hNav1.4 Tonic IC50; for Nav1.4/Nav1.7: ratio of PX tonic IC50 values.
Assay [3] has as its target hNav1.7 (Homo sapiens, UniProt Q15858). The note with it: for IC50: PatchXpress, read-out: PX hNav1.7 Tonic IC50; for Nav1.4/Nav1.7: ratio of PX tonic IC50 values.

Read-outs that look alike come from different tables or passages of the source.

hNav1.7, sequence (Q15858 whole entry): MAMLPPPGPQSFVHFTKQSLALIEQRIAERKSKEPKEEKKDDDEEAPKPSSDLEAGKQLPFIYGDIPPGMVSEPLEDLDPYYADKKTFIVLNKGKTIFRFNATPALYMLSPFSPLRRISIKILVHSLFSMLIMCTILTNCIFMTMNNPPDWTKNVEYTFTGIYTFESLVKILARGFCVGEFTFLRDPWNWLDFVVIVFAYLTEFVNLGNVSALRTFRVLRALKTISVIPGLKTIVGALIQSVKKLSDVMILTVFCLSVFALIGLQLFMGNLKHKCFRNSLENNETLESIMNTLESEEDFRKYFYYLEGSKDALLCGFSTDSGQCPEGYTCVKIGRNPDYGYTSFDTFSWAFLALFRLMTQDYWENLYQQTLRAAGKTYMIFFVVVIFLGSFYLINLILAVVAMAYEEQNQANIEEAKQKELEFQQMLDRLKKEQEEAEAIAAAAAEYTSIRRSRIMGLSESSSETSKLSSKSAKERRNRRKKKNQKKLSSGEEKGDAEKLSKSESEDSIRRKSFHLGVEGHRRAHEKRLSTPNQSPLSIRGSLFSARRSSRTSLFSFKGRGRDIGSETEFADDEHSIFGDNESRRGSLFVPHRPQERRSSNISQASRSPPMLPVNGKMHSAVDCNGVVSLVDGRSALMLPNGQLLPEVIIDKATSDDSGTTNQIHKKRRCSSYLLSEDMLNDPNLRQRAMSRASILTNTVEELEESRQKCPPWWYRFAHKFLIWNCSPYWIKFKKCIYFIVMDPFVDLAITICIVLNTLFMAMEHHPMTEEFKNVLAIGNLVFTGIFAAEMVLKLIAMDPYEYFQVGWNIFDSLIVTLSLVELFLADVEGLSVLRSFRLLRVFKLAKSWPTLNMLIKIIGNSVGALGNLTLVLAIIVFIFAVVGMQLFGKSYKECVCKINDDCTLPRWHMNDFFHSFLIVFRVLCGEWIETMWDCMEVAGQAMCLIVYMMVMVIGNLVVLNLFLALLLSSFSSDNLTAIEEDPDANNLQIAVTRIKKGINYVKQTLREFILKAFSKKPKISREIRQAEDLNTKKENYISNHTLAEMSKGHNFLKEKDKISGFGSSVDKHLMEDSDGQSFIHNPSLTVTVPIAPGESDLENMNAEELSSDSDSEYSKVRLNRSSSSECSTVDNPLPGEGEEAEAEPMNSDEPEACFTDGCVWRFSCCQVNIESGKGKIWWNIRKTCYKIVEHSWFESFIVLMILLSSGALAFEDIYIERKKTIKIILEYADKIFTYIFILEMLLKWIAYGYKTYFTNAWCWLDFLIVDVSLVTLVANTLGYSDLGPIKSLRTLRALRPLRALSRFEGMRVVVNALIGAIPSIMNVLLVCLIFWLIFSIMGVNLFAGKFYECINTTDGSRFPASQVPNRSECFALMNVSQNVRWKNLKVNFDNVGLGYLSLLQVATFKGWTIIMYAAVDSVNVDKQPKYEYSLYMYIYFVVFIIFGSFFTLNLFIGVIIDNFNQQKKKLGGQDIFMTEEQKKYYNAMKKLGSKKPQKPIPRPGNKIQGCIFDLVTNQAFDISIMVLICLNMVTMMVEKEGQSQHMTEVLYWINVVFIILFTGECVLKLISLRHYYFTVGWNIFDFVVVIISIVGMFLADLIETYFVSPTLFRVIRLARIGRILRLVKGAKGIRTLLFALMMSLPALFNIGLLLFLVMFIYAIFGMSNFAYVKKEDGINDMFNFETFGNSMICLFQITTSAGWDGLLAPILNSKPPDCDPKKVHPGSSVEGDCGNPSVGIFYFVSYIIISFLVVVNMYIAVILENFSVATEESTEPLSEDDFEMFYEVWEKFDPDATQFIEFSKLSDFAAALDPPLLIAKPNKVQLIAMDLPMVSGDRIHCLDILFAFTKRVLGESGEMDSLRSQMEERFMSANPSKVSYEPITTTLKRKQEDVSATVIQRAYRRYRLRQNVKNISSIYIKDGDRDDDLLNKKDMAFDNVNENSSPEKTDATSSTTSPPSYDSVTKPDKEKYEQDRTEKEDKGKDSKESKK
T1 sequence (P35499 whole entry): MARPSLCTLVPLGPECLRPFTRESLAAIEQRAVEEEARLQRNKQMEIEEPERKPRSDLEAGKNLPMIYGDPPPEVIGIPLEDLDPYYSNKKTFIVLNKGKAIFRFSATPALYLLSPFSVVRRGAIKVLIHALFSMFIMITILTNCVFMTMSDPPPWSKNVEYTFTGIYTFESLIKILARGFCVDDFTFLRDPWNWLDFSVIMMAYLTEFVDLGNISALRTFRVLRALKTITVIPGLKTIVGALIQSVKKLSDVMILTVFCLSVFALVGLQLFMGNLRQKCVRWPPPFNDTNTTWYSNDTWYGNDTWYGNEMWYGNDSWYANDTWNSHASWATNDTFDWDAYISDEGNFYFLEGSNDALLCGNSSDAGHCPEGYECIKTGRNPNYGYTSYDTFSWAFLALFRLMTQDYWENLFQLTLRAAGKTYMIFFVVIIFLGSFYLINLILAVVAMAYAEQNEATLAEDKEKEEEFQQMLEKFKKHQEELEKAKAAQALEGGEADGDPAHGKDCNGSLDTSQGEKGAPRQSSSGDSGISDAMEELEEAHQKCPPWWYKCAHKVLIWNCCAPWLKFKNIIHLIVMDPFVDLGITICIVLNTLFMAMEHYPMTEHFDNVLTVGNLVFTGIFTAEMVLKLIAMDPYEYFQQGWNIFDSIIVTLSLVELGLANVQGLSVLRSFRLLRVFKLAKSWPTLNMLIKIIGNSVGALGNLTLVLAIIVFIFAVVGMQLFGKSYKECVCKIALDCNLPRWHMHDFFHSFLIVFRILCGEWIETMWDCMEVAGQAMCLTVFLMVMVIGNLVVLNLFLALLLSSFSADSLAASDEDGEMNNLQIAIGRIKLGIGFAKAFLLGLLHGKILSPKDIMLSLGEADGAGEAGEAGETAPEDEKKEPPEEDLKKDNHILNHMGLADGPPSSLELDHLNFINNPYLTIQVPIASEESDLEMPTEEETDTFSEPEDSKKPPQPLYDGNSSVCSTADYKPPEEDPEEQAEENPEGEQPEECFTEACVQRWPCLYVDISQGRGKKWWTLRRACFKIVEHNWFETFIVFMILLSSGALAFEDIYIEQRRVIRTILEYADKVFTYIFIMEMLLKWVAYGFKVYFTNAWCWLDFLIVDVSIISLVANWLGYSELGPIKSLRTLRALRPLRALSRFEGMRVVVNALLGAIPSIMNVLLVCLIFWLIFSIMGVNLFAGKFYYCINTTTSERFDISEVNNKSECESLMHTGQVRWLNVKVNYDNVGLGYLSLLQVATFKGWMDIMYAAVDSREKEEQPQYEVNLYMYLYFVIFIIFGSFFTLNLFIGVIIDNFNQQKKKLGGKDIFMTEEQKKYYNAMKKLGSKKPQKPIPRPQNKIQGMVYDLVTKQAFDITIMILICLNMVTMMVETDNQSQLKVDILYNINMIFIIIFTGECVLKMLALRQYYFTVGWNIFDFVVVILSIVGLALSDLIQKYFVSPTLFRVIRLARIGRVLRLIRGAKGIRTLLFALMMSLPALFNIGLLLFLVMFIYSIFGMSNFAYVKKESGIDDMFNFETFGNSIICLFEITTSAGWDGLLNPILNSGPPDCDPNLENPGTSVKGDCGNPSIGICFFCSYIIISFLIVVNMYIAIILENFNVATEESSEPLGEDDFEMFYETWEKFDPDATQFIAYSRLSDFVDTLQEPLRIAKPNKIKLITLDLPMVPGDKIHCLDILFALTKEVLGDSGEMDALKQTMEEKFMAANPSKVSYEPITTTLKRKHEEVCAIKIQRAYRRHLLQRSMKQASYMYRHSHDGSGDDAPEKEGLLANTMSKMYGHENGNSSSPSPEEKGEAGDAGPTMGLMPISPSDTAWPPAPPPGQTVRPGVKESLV

`CC[C@H](C)[C@H](NC(=O)[C@H](Cc1cn(CCCOCCOCCOCCOCCOCCOCCOCCOCCOCCOCCN)nn1)NC(=O)[C@H](CCCCN)NC(=O)[C@H](CCCNC(=N)N)NC(=O)[C@@H]1CSSC[C@@H]2NC(=O)[C@H](C)NC(=O)[C@H](CCCNC(=N)N)NC(=O)[C@H](CCCCN)NC(=O)[C@H](CO)NC(=O)[C@H](CC(=O)O)NC(=O)[C@@H]3CSSC[C@H](NC(=O)[C@H](CCC(=O)O)NC(=O)[C@H](CC(C)C)NC(=O)CNC(=O)[C@H](CCC(=O)O)NC(=O)[C@H](CSSC[C@H](NC(=O)[C@@H](N)Cc4ccc(O)cc4)C(=O)N[C@@H](CCC(N)=O)C(=O)N[C@@H](CCCCN)C(=O)N[C@@H](Cc4c[nH]c5ccccc45)C(=O)N[C@@H](CCSC)C(=O)N[C@@H](Cc4c[nH]c5ccccc45)C(=O)N[C@@H]([C@@H](C)O)C(=O)N3)NC2=O)C(=O)N[C@@H](CCCCN)C(=O)N[C@@H](CC(C)C)C(=O)N[C@@H](Cc2c[nH]c3ccccc23)C(=O)N1)C(N)=O` [compound 187]: in assay [1], the Nav1.4/Nav1.7 worked out at 3.
For the molecule `CC[C@H](C)[C@H](NC(=O)[C@@H](NC(=O)[C@H](CCCCN)NC(=O)[C@H](CCCNC(=N)N)NC(=O)[C@@H]1CSSC[C@@H]2NC(=O)[C@H](C)NC(=O)[C@H](CCCNC(=N)N)NC(=O)[C@H](CCCCN)NC(=O)[C@H](CO)NC(=O)[C@H](CC(=O)O)NC(=O)[C@@H]3CSSC[C@H](NC(=O)[C@H](CCC(=O)O)NC(=O)[C@H](CC(C)C)NC(=O)CNC(=O)[C@H](CCC(=O)O)NC(=O)[C@H](CSSC[C@H](NC(=O)[C@@H](N)Cc4ccc(O)cc4)C(=O)N[C@@H](CCC(N)=O)C(=O)N[C@@H](CCCCN)C(=O)N[C@@H](Cc4c[nH]c5ccccc45)C(=O)N[C@@H](CCSC)C(=O)N[C@@H](Cc4c[nH]c5ccccc45)C(=O)N[C@@H]([C@@H](C)O)C(=O)N3)NC2=O)C(=O)N[C@@H](CCCCN)C(=O)N[C@@H](Cc2cn(CCCOCCOCCOCCOCCOCCOCCOCCOCCOCCOCCN)nn2)C(=O)N[C@@H](Cc2c[nH]c3ccccc23)C(=O)N1)[C@@H](C)CC)C(N)=O` [compound 183], the Nav1.4/Nav1.7 in assay [1] is 1.
`C#CC[C@@H]1NC(=O)[C@@H]2CSSC[C@H](NC(=O)[C@H](CCC(=O)O)NC(=O)[C@@H](N)CC#N)C(=O)N[C@@H](CCC(N)=O)C(=O)N[C@@H](CCCCN)C(=O)N[C@@H](Cc3c[nH]c4ccccc34)C(=O)N[C@@H](CCCC)C(=O)N[C@@H](Cc3c[nH]c4ccccc34)C(=O)N[C@@H]([C@@H](C)O)C(=O)N[C@H]3CSSC[C@H](NC(=O)[C@H](CCCNC(=N)N)NC(=O)[C@H](CC(C)C)NC(=O)CNC1=O)C(=O)N[C@@H](CCCCN)C(=O)N[C@@H](CC(C)C)C(=O)N[C@@H](Cc1c[nH]c4ccccc14)C(=O)N[C@H](C(=O)N[C@@H](CCCNC(=N)N)C(=O)N[C@@H](CCCCN)C(=O)N[C@@H](CCC(=O)O)C(=O)N[C@@H](CC1CCCCC1)C(N)=O)CSSC[C@H](NC(=O)[C@H](C)NC(=O)[C@H](CCCNC(=N)N)NC(=O)[C@H](CCCCN)NC(=O)[C@H](CO)NC(=O)[C@H](CC(=O)O)NC3=O)C(=O)N2` [compound 866]: the IC50 was found to be 37.6 nM in assay [2] (Table 12, tonic block) and 0.321 nM in assay [3] (Table 12, tonic block). In addition, the Nav1.4/Nav1.7 in assay [2] (Table 12) came to 117.
Take `CC[C@H](C)[C@H](NC(=O)[C@@H](NC(=O)[C@H](CCCCN)NC(=O)[C@H](CCCNC(=N)N)NC(=O)[C@@H]1CSSC[C@@H]2NC(=O)[C@H](C)NC(=O)[C@H](CCCNC(=N)N)NC(=O)[C@H](CCCCN)NC(=O)[C@H](CO)NC(=O)[C@H](CC(=O)O)NC(=O)[C@@H]3CSSC[C@H](NC(=O)[C@H](CCCNC(=N)N)NC(=O)[C@H](CC(C)C)NC(=O)CNC(=O)[C@H](CCC(=O)O)NC(=O)[C@H](CSSC[C@H](NC(=O)[C@@H](N)Cc4ccc(O)cc4)C(=O)N[C@@H](CCC(N)=O)C(=O)N[C@@H](CCCCN)C(=O)N[C@@H](CCC(=O)O)C(=O)N[C@@H](CCSC)C(=O)N[C@@H](Cc4c[nH]c5ccccc45)C(=O)N[C@@H]([C@@H](C)O)C(=O)N3)NC2=O)C(=O)N[C@@H](CCCCN)C(=O)N[C@@H](CC(C)C)C(=O)N[C@@H](Cc2c[nH]c3ccccc23)C(=O)N1)[C@@H](C)CC)C(N)=O` [compound 52]: the IC50 in assay [2] (tonic, Table 11) was 3.1 nM; in assay [3] (tonic, Table 11), greater than 1000 nM.
Take `C#CC[C@@H]1NC(=O)[C@@H]2CSSC[C@H](NC(=O)[C@H](Cc3ccc(O)cc3)NC(=O)[C@@H](N)CC#N)C(=O)N[C@@H](CCC(N)=O)C(=O)N[C@@H](CCCCN)C(=O)N[C@@H](Cc3c[nH]c4ccccc34)C(=O)N[C@@H](CCCC)C(=O)N[C@@H](Cc3c[nH]c4ccccc34)C(=O)N[C@@H]([C@@H](C)O)C(=O)N[C@H]3CSSC[C@H](NC(=O)[C@H](CCCNC(=N)N)NC(=O)[C@H](CC(C)C)NC(=O)CNC1=O)C(=O)N[C@@H](CCCCN)C(=O)N[C@@H](CC(C)C)C(=O)N[C@@H](Cc1c[nH]c4ccccc14)C(=O)N[C@H](C(=O)N[C@@H](CCCNC(=N)N)C(=O)N[C@@H](CCCCN)C(=O)N[C@@H](CCC(=O)O)C(=O)N[C@@H](CCc1ccccc1)C(N)=O)CSSC[C@H](NC(=O)[C@H](C)NC(=O)[C@H](CCCNC(=N)N)NC(=O)[C@H](CCCCN)NC(=O)[C@H](CO)NC(=O)[C@H](CC(=O)O)NC3=O)C(=O)N2` [compound 877]: the IC50 in assay [2] (Table 12, tonic block) was 14.9 nM; in assay [3] (Table 12, tonic block), 0.16 nM. In assay [2] (Table 12), the Nav1.4/Nav1.7 was determined as 93.
Consider `CC[C@H](C)[C@H](NC(=O)[C@@H](NC(=O)[C@H](CCCCN)NC(=O)[C@H](CCCNC(=N)N)NC(=O)[C@@H]1CSSC[C@@H]2NC(=O)[C@H](C)NC(=O)[C@H](CCCNC(=N)N)NC(=O)[C@H](CCCCN)NC(=O)[C@H](CO)NC(=O)[C@H](CC(=O)O)NC(=O)[C@@H]3CSSC[C@H](NC(=O)[C@H](CCCNC(=N)N)NC(=O)[C@H](CC(C)C)NC(=O)CNC(=O)[C@H](CCC(=O)O)NC(=O)[C@H](CSSC[C@H](NC(=O)[C@@H](N)Cc4ccc(O)cc4)C(=O)N[C@@H](CCC(N)=O)C(=O)N[C@@H](CCCCN)C(=O)N[C@@H](Cc4c[nH]c5ccccc45)C(=O)N[C@@H](CCSC)C(=O)N[C@@H](Cc4c[nH]c5ccccc45)C(=O)N[C@@H]([C@@H](C)O)C(=O)N3)NC2=O)C(=O)N[C@@H](CCC(=O)O)C(=O)N[C@@H](CC(C)C)C(=O)N[C@@H](Cc2c[nH]c3ccccc23)C(=O)N1)[C@@H](C)CC)C(N)=O` [compound 64], for which the half-inhibitory concentration (IC50) in assay [2] (tonic, Table 11) is 4340 nM; in assay [3] (tonic, Table 11), 930 nM. In addition, the Nav1.4/Nav1.7 in assay [3] (Table 11) was 5.
`CC[C@H](C)[C@H](NC(=O)[C@@H](NC(=O)[C@H](CCCCN)NC(=O)[C@H](CCCNC(=N)N)NC(=O)[C@@H]1CSSC[C@@H]2NC(=O)[C@H](C)NC(=O)[C@H](CCCNC(=N)N)NC(=O)[C@H](CCC(=O)O)NC(=O)[C@H](CO)NC(=O)[C@H](CC(=O)O)NC(=O)[C@@H]3CSSC[C@H](NC(=O)[C@H](CCCNC(=N)N)NC(=O)[C@H](CC(C)C)NC(=O)CNC(=O)[C@H](CCC(=O)O)NC(=O)[C@H](CSSC[C@H](NC(=O)[C@@H](N)Cc4ccc(O)cc4)C(=O)N[C@@H](CCC(N)=O)C(=O)N[C@@H](CCCCN)C(=O)N[C@@H](Cc4c[nH]c5ccccc45)C(=O)N[C@@H](CCSC)C(=O)N[C@@H](Cc4c[nH]c5ccccc45)C(=O)N[C@@H]([C@@H](C)O)C(=O)N3)NC2=O)C(=O)N[C@@H](CCCCN)C(=O)N[C@@H](CC(C)C)C(=O)N[C@@H](Cc2c[nH]c3ccccc23)C(=O)N1)[C@@H](C)CC)C(N)=O` [compound 58]: the IC50 came out at 43.2 nM in assay [2] (tonic, Table 11) and 0.904 nM in assay [3] (tonic, Table 11). Besides, the Nav1.4/Nav1.7 in assay [3] (Table 11) is given as 48.
For `C#CC[C@H](N)C(=O)N[C@@H](Cc1ccc(O)cc1)C(=O)N[C@H]1CSSC[C@@H]2NC(=O)[C@@H]3CSSC[C@@H](C(=O)N[C@@H](CCCNC(=N)N)C(=O)N[C@@H](CCCCN)C(=O)N[C@@H](CCC(=O)O)C(=O)N[C@H](C(N)=O)[C@@H](C)CC)NC(=O)[C@H](Cc4c[nH]c5ccccc45)NC(=O)[C@H](CC(C)C)NC(=O)[C@H](CCCCN)NC(=O)[C@H](CSSC[C@H](NC(=O)[C@H]([C@@H](C)O)NC(=O)[C@H](Cc4c[nH]c5ccccc45)NC(=O)[C@H](CCCC)NC(=O)[C@H](Cc4c[nH]c5ccccc45)NC(=O)[C@H](CCCCN)NC(=O)[C@H](CCC(N)=O)NC1=O)C(=O)N[C@@H](CC(=O)O)C(=O)N[C@@H](CO)C(=O)N[C@@H](CCC(=O)O)C(=O)N[C@@H](CCCNC(=N)N)C(=O)N[C@@H](C)C(=O)N3)NC(=O)[C@H](CCCNC(=N)N)NC(=O)[C@H](CC(C)C)NC(=O)CNC(=O)[C@H](CCCCN)NC2=O` [compound 728], the IC50 in assay [2] (Table 12, tonic block) was found to be 405 nM; in assay [3] (Table 12, tonic block), 8.76 nM. Moreover, the Nav1.4/Nav1.7 in assay [2] (Table 12) was 46.
Take `CC[C@H](C)[C@H](NC(=O)[C@@H](NC(=O)[C@H](CCC(=O)O)NC(=O)[C@H](CCCNC(=N)N)NC(=O)[C@@H]1CSSC[C@@H]2NC(=O)[C@H](C)NC(=O)[C@H](CCCNC(=N)N)NC(=O)[C@H](CCCCN)NC(=O)[C@H](CO)NC(=O)[C@H](CC(=O)O)NC(=O)[C@@H]3CSSC[C@H](NC(=O)[C@H](CCCNC(=N)N)NC(=O)[C@H](CC(C)C)NC(=O)CNC(=O)[C@H](CCC(=O)O)NC(=O)[C@H](CSSC[C@H](NC(=O)[C@@H](N)Cc4ccc(O)cc4)C(=O)N[C@@H](CCC(N)=O)C(=O)N[C@@H](CCCCN)C(=O)N[C@@H](Cc4c[nH]c5ccccc45)C(=O)N[C@@H](CCSC)C(=O)N[C@@H](Cc4c[nH]c5ccccc45)C(=O)N[C@@H]([C@@H](C)O)C(=O)N3)NC2=O)C(=O)N[C@@H](CCCCN)C(=O)N[C@@H](CC(C)C)C(=O)N[C@@H](Cc2c[nH]c3ccccc23)C(=O)N1)[C@@H](C)CC)C(N)=O` [compound 68]: the concentration for half-maximal inhibition (IC50) in assay [2] (tonic, Table 11) worked out at 324 nM; in assay [3] (tonic, Table 11), 12.3 nM. Also, the Nav1.4/Nav1.7 in assay [3] (Table 11) came out at 26.
